This test deals with 5-hydroxytryptamine receptor 7 (Rattus norvegicus, UniProt P32305). Description: Biological Assay: Compound affinity for the rat 5-HT7 receptor subtype was evaluated by competitive radioligand binding assay using 5-carboxamido[H3]typtamine ([3H]5-CT)(Amersham Biosciences) detection.
5-hydroxytryptamine receptor 7, sequence (P32305 whole entry): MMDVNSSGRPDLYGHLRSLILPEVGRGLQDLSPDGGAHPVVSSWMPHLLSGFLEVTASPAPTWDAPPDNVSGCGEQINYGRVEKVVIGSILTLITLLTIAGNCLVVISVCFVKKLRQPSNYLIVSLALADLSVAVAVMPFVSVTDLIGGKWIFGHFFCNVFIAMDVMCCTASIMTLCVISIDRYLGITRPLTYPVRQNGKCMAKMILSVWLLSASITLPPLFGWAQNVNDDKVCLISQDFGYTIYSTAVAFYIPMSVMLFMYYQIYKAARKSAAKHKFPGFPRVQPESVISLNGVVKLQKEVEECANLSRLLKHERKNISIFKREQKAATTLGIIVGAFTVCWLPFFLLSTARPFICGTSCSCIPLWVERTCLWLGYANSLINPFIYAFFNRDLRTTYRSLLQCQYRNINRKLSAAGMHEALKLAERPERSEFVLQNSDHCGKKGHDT

Regarding `Cc1cc(C#N)c(OC2CNC2)cc1-c1ccccc1`, the Ki (in general, the dissociation constant of the complex between target and ligand, obtained from inhibition or displacement) is not below 10 µM.
